Here are results for two molecules from ChEMBL document CHEMBL3217475, “INPHARMA-based identification of ligand binding site in fragment-based drug design” (Medchemcomm, 2012).

A short description of the assay: Inhibition of glycogen phosphorylase (unknown origin) by INPHARMA method. The arrangement: species or system Homo sapiens.

As a reminder, the IC50 is the concentration that gives 50% inhibition. Low values mean greater potency, high ones weaker potency.

On to `Cn1c(=O)c2c(ncn2C)n(C)c1=O` [CAFFEINE], for which half-maximal inhibition (IC50) required 100 µM.

Molecule `CN1CC[C@H](c2c(O)cc(O)c3c(=O)cc(-c4ccccc4Cl)oc23)[C@H](O)C1` [ALVOCIDIB] returned an IC50 of 1 µM.
